# “Also recorded” adds a separate entry of the source. Read-outs that look alike come from different tables or passages of the source.
# What was measured:
# Format in all cases: cell-based
# [1] = tested on: Streptococcus mutans com D (−) mutant; test: Inhibition of biofilm formation, quorum sensing negative mutant com D (-); conditions: read-out: Biofilm inhibition, com D (−) mutant
# Procedure: (§1) Using Streptococcus mutans as a model organism that generates biofilms, overnight cultures of Streptococcus mutans in THB medium (Todd Hewitt Broth, available from Bacto) were diluted 1:100 into fresh THB medium containing 0.5% wt/vol sucrose. For anaerobic growth, medium was flushed with nitrogen before use. Aliquots of the diluted culture (95 μL) of Example 1 were distributed into the wells of a 96-well polystyrene flat bottom microtiter plate, containing 5 μL of different concentrations of test compound or alternatively, 5 μL methanol as a control. Microtiter plates were incubated under aerobic and an anaerobic conditions, respectively, at 37° C. for approximately 24 hours. For non-biofilm forming growth, e.g. planctonic growth, cells were grown in THB without the additional sucrose under otherwise identical conditions.
# (§2) Bacterial growth was monitored in the microtiter plate by optical density readings at 620 nm. Quantitative bio film formation was determined using the live/dead bacLight bacterial viability staining kit (available under catalogue number L13152 from Molecular Probes, Eugene, Oreg., USA). […] When used alone, the green fluorescing stain Cyto9 generally labels all bacteria in the population, whereas the red fluorescing stain propidium-iodide only penetrates bacteria having damaged membranes, causing a reduction in the Cyto9 stain fluorescence when both dyes are present. […]
# E. coli = test: Antibiotic activity against E. coli
# [2] = tested on: Streptococcus mutans wild-type strain; test: Inhibition of biofilm formation in in vitro culture (live/dead BacLight staining, microtiter plate); conditions: for inhibition at 0.025 µg/mL: Carolacton 0.025 μg/mL; for inhibition at 0.25 µg/mL: Carolacton 0.25 μg/mL; for inhibition at 2.5 µg/mL: Carolacton 2.5 μg/mL; for inhibition at 50 µg/mL: Carolacton 50 μg/mL
# Procedure: as §1
# Bacterial growth was monitored in the microtiter plate by optical density readings at 620 nm. Quantitative bio film formation was determined using the live/dead bacLight bacterial viability staining kit (available under catalogue number L13152 from Molecular Probes, Eugene, Oreg., USA). The kit incorporates two nucleic acid stains that differ in spectral characteristics and their ability to penetrate bacterial cell membranes. When used alone, the green fluorescing stain Cyto9 generally labels all bacteria in the population, whereas the red fluorescing stain propidium-iodide only penetrates bacteria having damaged membranes, causing a reduction in the Cyto9 stain fluorescence when both dyes are present.
# For staining, the culture medium was removed from the microtiter plate wells and cells were washed once with 100 μL fresh THB medium to remove planctonic growing and loosely bound cells. According to all the manufacturer's instructions, the adherent bacteria, regarded as the bio film, were then stained for 15 min in the dark at room temperature, using 100 μL of a 1:1 mixture of the two dye components. Fluorescence was measured in a microtiter plate reader (Wallac Victor 1420 multilabel counter, PerkinElmer Life Sciences), equipped with detectors and filter sets for monitoring red and green fluorescence.
# Quantitative bio film formation was calculated by dividing the fluorescence intensities of the stained biofilms for each well of the microtiter plate at an emission of 530 nm (green) by the fluorescence intensity at the emission of 630 nm (red). As 100% activity, the results obtained from wells only containing methanol as the control, instead of a test compound, was used. Under anaerobic conditions, Carolacton inhibited formation of biofilm from Streptococcus mutans at very low concentrations.
# For a determination of bio film inhibition in relation to the control, the activity value for the Carolacton comprising test well was subtracted from the value obtained for the control. At concentrations of 2.5 and 0.25 μg/mL Carolacton, respectively, bio film formation by Streptococcus mutans wild-type strain was inhibited by about 60% under anaerobic conditions.
# [3] = tested on: Streptococcus mutans com E (−) mutant; test: Inhibition of biofilm formation, quorum sensing negative mutant com E (-)
# [4] = tested on: Streptococcus mutans com C (−) mutant; test: Biofilm formation, quorum sensing negative mutant com C (-); conditions: same testing conditions
# Procedure: as §1, §2
# [5] = tested on: Streptococcus mutans planctonic cultures; test: Planctonic growth (optical density readings at 620 nm); conditions: THB without additional sucrose
# Procedure: as §1
# Bacterial growth was monitored in the microtiter plate by optical density readings at 620 nm. Quantitative bio film formation was determined using the live/dead bacLight bacterial viability staining kit (available under catalogue number L13152 from Molecular Probes, Eugene, Oreg., USA). […] When used alone, the green fluorescing stain Cyto9 generally labels all bacteria in the population, whereas the red fluorescing stain propidium-iodide only penetrates bacteria having damaged membranes, causing a reduction in the Cyto9 stain fluorescence when both dyes are present.
# [6] = tested on: Streptococcus mutans luxS mutant; test: Inhibition of biofilm formation, luxS mutant; conditions: read-out: Biofilm inhibition, luxS mutant
# Procedure: as §1, §2
# E. coli tolC = test: Antibiotic activity against E. coli tolC in vitro; conditions: E. coli tolC has an impaired cell wall
# [7] = Streptococcus mutans, aerobic, read-out: Biofilm inhibition (%) under aerobic conditions
# [8] = Streptococcus mutans, anaerobic, read-out: Biofilm inhibition (%) under anaerobic conditions
smiles,measurement,setting,value
COC(CC(=O)O)C(C)C(=O)C(C)/C=C(\C)C1OC(=O)C(O)C(O)/C=C/C(C)CCCC1C (stereo not shown) [Carolacton],inhibition at 0.25 µg/mL,[1],~10%
same,inhibition at 2.5 µg/mL,[1],~10%
same,Concentration needed to inhibit E. coli,E. coli,above 40 μg/mL
same,inhibition at 0.025 µg/mL,[2]; [7],21%
same,inhibition at 0.25 µg/mL,[2]; [7],21%
same,inhibition at 2.5 µg/mL,[2]; [7],19%
same,inhibition at 50 µg/mL,[2]; [7],1%
same,inhibition at 0.0025 µg/mL,"[2]; Streptococcus mutans, anaerobic, Carolacton 0.0025 μg/mL, read-out: Biofilm inhibition (%) under anaerobic conditions",-7%
same,inhibition at 0.005 µg/mL,"[2]; Streptococcus mutans, anaerobic, Carolacton 0.005 μg/mL, read-out: Biofilm inhibition (%) under anaerobic conditions",35%
same,inhibition at 0.025 µg/mL,[2]; [8],~65%
same,inhibition at 0.05 µg/mL,"[2]; Streptococcus mutans, anaerobic, Carolacton 0.05 μg/mL, read-out: Biofilm inhibition (%) under anaerobic conditions",60%
same,inhibition at 0.25 µg/mL,[2]; [8],~60%
same,inhibition at 0.25 µg/mL,"[2]; Streptococcus mutans, anaerobic, second experiment, read-out: Biofilm inhibition (%) under anaerobic conditions",77%
same,inhibition at 2.5 µg/mL,[2]; [8],~60%
same,inhibition at 25 µg/mL,"[2]; Streptococcus mutans, anaerobic, Carolacton 25 μg/mL, read-out: Biofilm inhibition (%) under anaerobic conditions",66%
same,inhibition at 50 µg/mL,[2]; [8],82%
same,Lowest concentration achieving inhibition of biofilm generation,[2]; in vitro cultures,0.005 µg/mL
same,"Biofilm inhibition, com E (−) mutant","[3]; Carolacton 2.5 μg/mL, same testing conditions",5%
same,inhibition at 0.25 µg/mL,"[3]; Streptococcus mutans, read-out: Biofilm inhibition, com E (−) mutant",12%
same,"Induction of biofilm formation, com C (−) mutant",[4]; Carolacton 0.25 μg/mL,150%
same,"Induction of biofilm formation, com C (−) mutant",[4]; Carolacton 2.5 μg/mL,200%
same,Influence on planctonic growth,[5],"only slightly influenced; also recorded: not influenced by Carolacton, or only marginally reduced"
same,inhibition at 2.5 µg/mL,[6],59%
same,inhibition at 40.25 µg/mL,[6],46%
same,Concentration with antibiotic activity against E. coli tolC,E. coli tolC,60 ng/mL
